Columns and labels:
Assay in all cases: cells
[1] = system: BPH-1; format: functional, cell-based, Homo sapiens; conditions: Homo sapiens, BPH-1;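 also: cell viability assay measuring growth inhibition of human BPH-1 cells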
Description: SANGER: Inhibition of human BPH-1 cell growth in a cell viability assay.

[2] = system: MKN-7; format: functional, cell-based, Homo sapiens; conditions: Homo sapiens, MKN-7;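 also: growth inhibition of MKN-7 cells, read out with a cell viability assay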
Description: SANGER: Inhibition of human MKN7 cell growth in a cell viability assay.

[3] = system: AN3-CA; format: functional, cell-based; conditions: Homo sapiens;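 also: growth inhibition of human AN3-CA cells measured by a cell viability assay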
Description: SANGER: Inhibition of human AN3-CA cell growth in a cell viability assay.

[4] = system: BCPAP; format: functional, cell-based, Homo sapiens; conditions: Homo sapiens, BCPAP;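 also: growth inhibition of BCPAP cells, read out in a cell viability assay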
Description: SANGER: Inhibition of human BCPAP cell growth in a cell viability assay.

[5] = system: LS-1034; format: functional, cell-based, Homo sapiens; conditions: Homo sapiens, LS-1034
Description: SANGER: Inhibition of human LS-1034 cell growth in a cell viability assay.

[6] = system: U-118-MG; format: functional, cell-based, Homo sapiens; conditions: Homo sapiens, U-118-MG
Description: SANGER: Inhibition of human U-118-MG cell growth in a cell viability assay.

[7] = system: SiHa; format: functional, cell-based, Homo sapiens; conditions: Homo sapiens, SiHa;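 also: Viability-based readout of growth inhibition in SiHa cells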
Description: SANGER: Inhibition of human SiHa cell growth in a cell viability assay.

[8] = system: U-266; format: functional, cell-based; conditions: Homo sapiens
Description: SANGER: Inhibition of human U-266 cell growth in a cell viability assay.

[9] = system: C3A; format: functional, cell-based, Homo sapiens; conditions: Homo sapiens, C3A;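 also: growth inhibition of C3A human cells, quantified with a cell viability readout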
Description: SANGER: Inhibition of human C3A cell growth in a cell viability assay.

[10] = system: M14; format: functional, cell-based, Homo sapiens; conditions: Homo sapiens, M14;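 also: growth inhibition of M14 cells, read out with a cell viability assay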
Description: SANGER: Inhibition of human M14 cell growth in a cell viability assay.

[11] = system: KYSE-70 cell line; format: functional, cell-based, Homo sapiens; conditions: Homo sapiens, KYSE-70;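 also: cell viability assay read-out, with IC50 expressing suppression of KYSE-70 cell growth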
Description: SANGER: Inhibition of human KYSE-70 cell growth in a cell viability assay.

[12] = system: SW1088; format: functional, cell-based, Homo sapiens; conditions: Homo sapiens, SW1088;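 also: growth inhibition of human SW1088 cells, read out by a cell viability assay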
Description: SANGER: Inhibition of human SW1088 cell growth in a cell viability assay.

[13] = system: NCI-H446; format: functional, cell-based; conditions: Homo sapiens;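 also: growth inhibition of NCI-H446 cells determined by a cell viability assay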
Description: SANGER: Inhibition of human NCI-H446 cell growth in a cell viability assay.

[14] = system: A-427; format: functional, cell-based, Homo sapiens; conditions: Homo sapiens, A-427;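 also: growth inhibition of human A-427 cells, read out by a cell viability assay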
Description: SANGER: Inhibition of human A427 cell growth in a cell viability assay.

[15] = system: PA-1; format: functional, cell-based, Homo sapiens; conditions: Homo sapiens, PA-1;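 also: IC50 for suppression of PA-1 cell proliferation, determined with a cell viability read-out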
Description: SANGER: Inhibition of human PA-1 cell growth in a cell viability assay.

[16] = system: GCIY; format: functional, cell-based, Homo sapiens; conditions: Homo sapiens, GCIY;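 also: growth inhibition of the human GCIY cell line, read out by a cell viability assay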
Description: SANGER: Inhibition of human GCIY cell growth in a cell viability assay.

[17] = system: LU-134-A; format: functional, cell-based; conditions: Homo sapiens
Description: SANGER: Inhibition of human LU-134-A cell growth in a cell viability assay.

[18] = system: SW948; format: functional, cell-based, Homo sapiens; conditions: Homo sapiens, SW948;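 also: growth inhibition of SW948 cells, read out with a cell viability assay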
Description: SANGER: Inhibition of human SW948 cell growth in a cell viability assay.

[19] = system: KYSE-410; format: functional, cell-based, Homo sapiens; conditions: Homo sapiens, KYSE-410;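 also: growth inhibition of KYSE-410 cells, measured through a cell viability readout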
Description: SANGER: Inhibition of human KYSE-410 cell growth in a cell viability assay.

[20] = system: CaR-1; format: functional, cell-based, Homo sapiens; conditions: Homo sapiens, CaR-1;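 also: growth inhibition of human CaR-1 cancer cells, read out with a cell viability assay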
Description: SANGER: Inhibition of human CaR-1 cell growth in a cell viability assay.

[21] = system: TCC-SUP; format: functional, cell-based, Homo sapiens; conditions: Homo sapiens, TCC-SUP;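 also: growth inhibition of TCC-SUP cells, read out with a cell viability assay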
Description: SANGER: Inhibition of human TCCSUP cell growth in a cell viability assay.

[22] = system: RERF-LC-MS; format: functional, cell-based, Homo sapiens; conditions: Homo sapiens, RERF-LC-MS;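 also: growth inhibition of human RERF-LC-MS cells, read out by a cell viability assay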
Description: SANGER: Inhibition of human RERF-LC-MS cell growth in a cell viability assay.

[23] = system: UO-31; format: functional, cell-based; conditions: Homo sapiens;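 also: cell viability assay measuring inhibition of cell growth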
Description: SANGER: Inhibition of human U031 cell growth in a cell viability assay.

[24] = system: KINGS-1; format: functional, cell-based, Homo sapiens; conditions: Homo sapiens, KINGS-1;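 also: cell viability assay measuring suppression of KINGS-1 cell growth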
Description: SANGER: Inhibition of human KINGS-1 cell growth in a cell viability assay.

[25] = system: PFSK-1; format: functional, cell-based, Homo sapiens; conditions: Homo sapiens, PFSK-1;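 also: cell viability assay measuring how strongly compounds suppress growth of human PFSK-1 cells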
Description: SANGER: Inhibition of human PFSK-1 cell growth in a cell viability assay.

[26] = system: MDA-MB-175-VII; format: functional, cell-based, Homo sapiens; conditions: Homo sapiens, MDA-MB-175-VII
[27] = system: CAL-120; format: functional, cell-based, Homo sapiens; conditions: Homo sapiens, CAL-120;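 also: cell growth inhibition, read out as cell viability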
Description: SANGER: Inhibition of human CAL-120 cell growth in a cell viability assay.

[28] = system: MKN-1; format: functional, cell-based, Homo sapiens; conditions: Homo sapiens, MKN-1;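 also: growth inhibition of human MKN1 cells, read out by a cell viability measurement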
Description: SANGER: Inhibition of human MKN1 cell growth in a cell viability assay.

[29] = system: C32; format: functional, cell-based, Homo sapiens; conditions: Homo sapiens, C32;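 also: cell viability assay, with IC50 reflecting inhibition of C32 cell growth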
Description: SANGER: Inhibition of human C32 cell growth in a cell viability assay.

[30] = system: RT-112; format: functional, cell-based, Homo sapiens; conditions: Homo sapiens, RT-112
Description: SANGER: Inhibition of human RT-112 cell growth in a cell viability assay.

[31] = system: MDA-MB-415; format: functional, cell-based; conditions: Homo sapiens
[32] = system: NCI-H1838; format: functional, cell-based, Homo sapiens; conditions: Homo sapiens, NCI-H1838;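 also: growth inhibition of NCI-H1838 cells, determined with a cell viability readout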
Description: SANGER: Inhibition of human NCI-H1838 cell growth in a cell viability assay.

[33] = system: SK-N-DZ; format: functional, cell-based, Homo sapiens; conditions: Homo sapiens, SK-N-DZ;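 also: growth inhibition of the cancer cell line, read out through a viability assay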
Description: SANGER: Inhibition of human SK-N-DZ cell growth in a cell viability assay.

[34] = system: BB65-RCC; format: functional, cell-based, Homo sapiens; conditions: Homo sapiens, BB65-RCC;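 also: growth inhibition of the cell line, measured with a cell viability assay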
Description: SANGER: Inhibition of human BB65-RCC cell growth in a cell viability assay.

[35] = system: BB49-HNC; format: functional, cell-based, Homo sapiens; conditions: Homo sapiens, BB49-HNC;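 also: cell viability assay read-out, reported as inhibition of BB49-HNC cell growth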
Description: SANGER: Inhibition of human BB49-HNC cell growth in a cell viability assay.

[36] = system: LB2518-MEL; format: functional, cell-based, Homo sapiens; conditions: Homo sapiens, LB2518-MEL;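 also: growth inhibition of human LB2518-MEL cells, measured with a cell viability assay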
Description: SANGER: Inhibition of human LB2518-MEL cell growth in a cell viability assay.

[37] = system: NB10; format: functional, cell-based, Homo sapiens; conditions: Homo sapiens, NB10;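 also: growth inhibition of NB10 cells, read out by a cell viability assay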
Description: SANGER: Inhibition of human NB10 cell growth in a cell viability assay.

[38] = system: NCI-H526; format: functional, cell-based; conditions: Homo sapiens;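 also: growth inhibition of the human NCI-H526 cell line, measured by a cell viability assay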
Description: SANGER: Inhibition of human NCI-H526 cell growth in a cell viability assay.

[39] = system: LoVo; format: functional, cell-based; conditions: Homo sapiens;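 also: growth inhibition of human LoVo cells, read out with a cell viability assay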
Description: SANGER: Inhibition of human LoVo cell growth in a cell viability assay.

[40] = system: IST-MEL1; format: functional, cell-based, Homo sapiens; conditions: Homo sapiens, IST-MEL1;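 also: growth inhibition of the cell line, read out with a cell viability assay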
Description: SANGER: Inhibition of human IST-MEL1 cell growth in a cell viability assay.

[41] = system: 786-0; format: functional, cell-based, Homo sapiens; conditions: Homo sapiens
Description: SANGER: Inhibition of human 786-0 cell growth in a cell viability assay.

[42] = system: J82; format: functional, cell-based; conditions: Homo sapiens;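 also: growth inhibition of J82 cells, read out with a cell viability assay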
Description: SANGER: Inhibition of human J82 cell growth in a cell viability assay.

[43] = system: SCC-15; format: functional, cell-based, Homo sapiens; conditions: Homo sapiens, SCC-15;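 also: growth inhibition of SCC-15 cells, read out with a cell viability assay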
Description: SANGER: Inhibition of human SCC-15 cell growth in a cell viability assay.

[44] = system: Lu-65; format: functional, cell-based; conditions: Homo sapiens;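 also: growth inhibition of Lu-65 cancer cells, read out by a cell viability assay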
Description: SANGER: Inhibition of human LU-65 cell growth in a cell viability assay.

[45] = system: LCLC-97TM1; format: functional, cell-based, Homo sapiens; conditions: Homo sapiens, LCLC-97TM1;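 also: cell viability assay measuring growth inhibition of human LCLC-97TM1 cells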
Description: SANGER: Inhibition of human LCLC-97TM1 cell growth in a cell viability assay.

[46] = system: MN-60; format: functional, cell-based; conditions: Homo sapiens;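 also: growth inhibition of the MN-60 cell line, determined with a cell viability assay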
Description: SANGER: Inhibition of human MN-60 cell growth in a cell viability assay.

[47] = system: CHP-212; format: functional, cell-based, Homo sapiens; conditions: Homo sapiens, CHP-212
Description: SANGER: Inhibition of human CHP-212 cell growth in a cell viability assay.

[48] = system: L-428; format: functional, cell-based; conditions: Homo sapiens
Description: SANGER: Inhibition of human L-428 cell growth in a cell viability assay.

[49] = system: BT-474; format: functional, cell-based, Homo sapiens; conditions: Homo sapiens, BT-474
Description: SANGER: Inhibition of human BT-474 cell growth in a cell viability assay.

[50] = system: A498; format: functional, cell-based, Homo sapiens; conditions: Homo sapiens, A498;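 also: growth inhibition of human A498 cells, read out with a cell viability assay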
Description: SANGER: Inhibition of human A498 cell growth in a cell viability assay.

[51] = system: DB; format: functional, cell-based; conditions: Homo sapiens
Description: SANGER: Inhibition of human DB cell growth in a cell viability assay.

## COc1cc(F)c(F)c(Nc2ccc(I)cc2F)c1NS(=O)(=O)C1(CC(O)CO)CC1 (configuration not stated)
[1]
  IC50: 0.135 µM
[2]
  IC50: > 5 µM
[3]
  IC50: > 5 µM
[4]
  IC50: 2.18 µM
[5]
  IC50: 1.62 µM
[6]
  IC50: > 5 µM
[7]
  IC50: > 5 µM
[8]
  IC50: > 5 µM
[9]
  IC50: > 5 µM
[10]
  IC50: 0.0286 µM
[11]
  IC50: > 5 µM
[12]
  IC50: > 5 µM
[13]
  IC50: > 5 µM
[14]
  IC50: 4.46 µM
[15]
  IC50: > 5 µM
[16]
  IC50: 1.18 µM
[17]
  IC50: > 5 µM
[18]
  IC50: > 5 µM
[19]
  IC50: 3.35 µM
[20]
  IC50: > 5 µM
[21]
  IC50: > 5 µM
[22]
  IC50: 1.33 µM
[23]
  IC50: > 5 µM
[24]
  IC50: 2.69 µM
[25]
  IC50: > 5 µM
[26]
  IC50: 2.57 µM
[27]
  IC50: > 5 µM
[28]
  IC50: > 5 µM
[29]
  IC50: 0.0572 µM
[30]
  IC50: 1.59 µM
[31]
  IC50: > 5 µM
[32]
  IC50: > 5 µM
[33]
  IC50: > 5 µM
[34]
  IC50: 3.66 µM
[35]
  IC50: > 5 µM
[36]
  IC50: 0.0775 µM
[37]
  IC50: > 5 µM
[38]
  IC50: > 5 µM
[39]
  IC50: 0.396 µM
[40]
  IC50: 1.89 µM
[41]
  IC50: 2.37 µM
[42]
  IC50: > 5 µM
[43]
  IC50: > 5 µM
[44]
  IC50: 3.28 µM
[45]
  IC50: 0.279 µM
[46]
  IC50: > 5 µM
[47]
  IC50: 0.00492 µM
[48]
  IC50: > 5 µM
[49]
  IC50: > 5 µM
[50]
  IC50: > 5 µM
[51]
  IC50: > 5 µM

## COc1ccc(-c2ccc3c(N4CCOC[C@@H]4C)nc(N4CCOC[C@@H]4C)nc3n2)cc1CO [AZD-8055]
[1]
  IC50: 0.884 µM
[2]
  IC50: 1.22 µM
[3]
  IC50: 0.0795 µM
[4]
  IC50: 0.588 µM
[5]
  IC50: > 2 µM
[6]
  IC50: 1.85 µM
[7]
  IC50: > 2 µM
[8]
  IC50: > 2 µM
[9]
  IC50: > 2 µM
[10]
  IC50: 0.472 µM
[11]
  IC50: 1.74 µM
[12]
  IC50: 1.37 µM
[13]
  IC50: 1.33 µM
[14]
  IC50: 0.962 µM
[15]
  IC50: 0.336 µM
[16]
  IC50: 0.458 µM
[17]
  IC50: 1.03 µM
[18]
  IC50: > 2 µM
[19]
  IC50: 1.27 µM
[20]
  IC50: 1.75 µM
[21]
  IC50: 1.47 µM
[22]
  IC50: > 2 µM
[23]
  IC50: > 2 µM
[24]
  IC50: > 2 µM
[25]
  IC50: 0.83 µM
[26]
  IC50: 0.577 µM
[27]
  IC50: 0.86 µM
[28]
  IC50: > 2 µM
[29]
  IC50: 0.725 µM
[30]
  IC50: 0.849 µM
[31]
  IC50: 1.22 µM
[32]
  IC50: > 2 µM
[33]
  IC50: > 2 µM
[34]
  IC50: 0.308 µM
[35]
  IC50: 1.75 µM
[36]
  IC50: > 2 µM
[37]
  IC50: > 2 µM
[38]
  IC50: > 2 µM
[39]
  IC50: 0.202 µM
[40]
  IC50: 1.19 µM
[41]
  IC50: 1.09 µM
[42]
  IC50: > 2 µM
[43]
  IC50: 1.17 µM
[44]
  IC50: 1.26 µM
[45]
  IC50: 1.41 µM
[46]
  IC50: 0.678 µM
[47]
  IC50: 0.437 µM
[48]
  IC50: > 2 µM
[49]
  IC50: 1.78 µM
[50]
  IC50: > 2 µM
[51]
  IC50: 0.5 µM

From ChEMBL document CHEMBL1201861, “Genomics of Drug Sensitity in Cancer screening data, Wellcome Trust Sanger Institute”
